Laboratory results taken from US11352391B2, “Compositions for inducing urinary voiding and defecation” (Dignify Therapeutics, LLC, priority 2017, dated 2022).
Read-outs that look alike come from different tables or passages of the source. Where a SMILES comes first, the peptide text is derived from it. Where no end group is shown, it is not given here.

Columns and labels:
[1] = Saline solubility of heptapeptides; type: physicochemical
Experimental: Heptapeptides A-K shown below in Table 1 (SEQ ID NOs: 1-11) were synthesized according to standard Fmoc-mediated solid-phase techniques and purified under typical C18 reverse-phase conditions.
Compounds D-K were considered to be insoluble in saline (<1 mg/mL).

[2] = target: T1, recombinant hNK2R expressed in CHO cells (Homo sapiens, UniProt P21452); assay: Intracellular calcium mobilization (FLIPR) in CHO-hNK2 cells; type: cell-based; settings: for hNK2 selectivity ratio: ratio of EC50s hNK1R/hNK2R
T1 sequence (P21452 1-398): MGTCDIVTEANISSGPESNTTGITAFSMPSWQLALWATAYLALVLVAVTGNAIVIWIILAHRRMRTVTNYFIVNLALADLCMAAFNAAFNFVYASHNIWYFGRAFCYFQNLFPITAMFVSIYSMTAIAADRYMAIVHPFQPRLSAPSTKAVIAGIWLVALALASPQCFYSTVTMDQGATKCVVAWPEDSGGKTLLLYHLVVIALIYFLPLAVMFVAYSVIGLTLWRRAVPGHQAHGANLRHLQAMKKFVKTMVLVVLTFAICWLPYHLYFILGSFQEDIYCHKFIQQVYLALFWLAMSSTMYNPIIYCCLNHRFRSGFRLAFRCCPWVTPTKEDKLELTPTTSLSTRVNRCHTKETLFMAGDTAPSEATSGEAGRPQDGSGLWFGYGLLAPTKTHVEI
Experimental: (§1) CHO-hNK1 and CHO-hNK2 cells were seeded into black walled clear-bottom 384-well plates) at a density of 10,000 and 15,000 cells per well in 50 μL culture media, respectively, and grown overnight at 37° C. in a humidified CO2-incubator. Cells were washed in washing buffer using the EMBLA 384 instrument, leaving 20 μL of buffer per well after the final aspiration. Cells were then incubated at 37° C. with the cytoplasmic Ca2+ indicator Fluo-4 AM (final concentration 1 μM) in assay buffer (20 mM HEPES, 145 mM NaCl, 5 mM KCl, 5.5 mM glucose, 1 mM MgCl2 and 2 mM CaCl2, pH 7.4, 0.05% Pluronic F-127 and 0.1% BSA) containing 2.5 mM probenecid for […] (cell loading). Cells were then washed 3 times in washing buffer (20 mM HEPES, 145 mM NaCl, 5 mM KCl, 5.5 mM glucose, 1 mM MgCl2 and 2 mM CaCl2, pH 7.4 and 2.5 mM probenecid) using the EMBLA 384 instrument, leaving 30 μL of buffer in each well after the last wash. Loaded cell plates were transferred to the FLIPR machine and calcium responses were monitored as described below. A dual read-out FLIPR protocol was used, allowing for characterization of both agonist and antagonist profiles. For quality control, in each compound plate the signal was monitored by evaluating the responses to the reference standards (NKA and Substance P).
(§2) Concentration response curves of compounds were run in duplicate on two different occasions from the same stock solutions. Test solutions were prepared from 10 mM stock solutions in DMSO and 1 μL of each solution was stamped into V-bottom assay plates containing 49 μL assay buffer. The final concentration of DMSO was 0.5% in each well.

[3] = target: recombinant hNK1R expressed in CHO cells (Homo sapiens, UniProt P25103); assay: Intracellular calcium mobilization (FLIPR) in CHO-hNK1 cells; type: cell-based
Chain of recombinant hNK1R expressed in CHO cells (P25103 whole entry): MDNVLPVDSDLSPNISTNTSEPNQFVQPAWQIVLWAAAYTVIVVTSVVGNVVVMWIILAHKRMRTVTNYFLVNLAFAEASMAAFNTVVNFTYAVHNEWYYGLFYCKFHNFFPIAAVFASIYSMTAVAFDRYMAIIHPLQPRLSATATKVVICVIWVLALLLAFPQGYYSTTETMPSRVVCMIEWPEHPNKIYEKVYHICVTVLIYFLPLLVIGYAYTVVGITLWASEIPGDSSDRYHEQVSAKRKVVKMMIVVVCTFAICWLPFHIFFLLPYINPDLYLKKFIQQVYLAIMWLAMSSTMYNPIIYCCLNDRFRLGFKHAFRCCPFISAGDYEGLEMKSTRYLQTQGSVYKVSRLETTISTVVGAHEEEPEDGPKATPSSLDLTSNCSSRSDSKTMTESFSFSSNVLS
Experimental: as §1, §2

[4] = target: T2, human NK2 Receptor (hNK2R) (Homo sapiens, UniProt P21452); assay: [125I]-NKA radioligand competition binding to human recombinant NK2Rs (CHO-hNK2 membranes); settings: for hNK2 selectivity ratio: ratio of Kis hNK1R/hNK2R
T2 sequence (P21452 1-398): T1 sequence (P21452 1-398)
Experimental: (§3) After removal of the supernatant the cell pellet was washed and collected by re-suspension in PBS and centrifugation.
(§4) Frozen pellets were thawed and homogenized in 10 volumes (w/v) of membrane preparation buffer (50 mM HEPES pH 7.4, 1 mM EDTA, 50 μg/mL bacitracin and protease inhibitors) using a Polytron Ultraturrax (twice for 15 s per cycle). […] Protein concentration was determined using BioRad Protein Assay (Milan, Italy) with a BSA standard curve.

[5] = target: human NK1 Receptor (hNK1R) (Homo sapiens, UniProt P25103); assay: [3H]-septide radioligand competition binding to human recombinant NK1Rs (CHO-hNK1 membranes)
Chain of human NK1 Receptor (hNK1R) (P25103 whole entry): as above
Experimental: as §3, §4

[6] = Pharmacokinetics in rat plasma after cassette IV bolus dosing; settings: Sprague-Dawley, in vivo
Experimental: The concentrations of compounds (SEQ ID NOS: 1-11) were measured in rat plasma after intravenous (IV) bolus dosing to determine pharmacokinetic profiles of individual compounds.
Animal preparation: In vivo studies were performed in anesthetized adult Sprague Dawley rats. Rats were anesthetized with urethane (1.2-1.4 g/kg subcutaneous injection). Surgical procedures were then performed with the addition of isoflurane anesthesia (0.05-1.5% in 02) as needed. A venous cannula was inserted into the jugular vein for intravenous (IV) administration of compounds.
In vivo dosing and plasma sampling: Compounds were divided into two groups (soluble and insoluble). Each group was dosed as a cassette in which four compounds (100 μg/kg each compound) were combined into a single IV bolus injection to anesthetized adult Sprague-Dawley rats. Soluble compounds were dissolved in saline. Insoluble compounds were dissolved in a 10% ethanol/saline solution. Rats were cassette dosed based on weight using 0.1 mg/mL solutions of individual compounds. Blood samples (700 μL) were collected using a carotid artery cannula into EDTA tubes containing ascorbic acid (final concentration 1%), and plasma was isolated.
Bioanalytical assay: A reversed-phase HPLC with Turbo Ion Spray MS/MS detection method was developed for bioanalysis. Mass spec transition and settings were individually optimized for each compound and then compounds were cassetted for HPLC method development and optimization. [^13C9; ^15N] [Lys5,MeLeu9,Nle10]-NKA(4-10) was used as an internal standard (IS). Analyte-to-IS peak area ratios for individual compounds were used to create linear calibration curves (1-20 ng/mL) using 1/×2 weighted least-squares regression analysis for evaluation of method linearity, precision and accuracy. For plasma concentration measurements, plasma samples were spiked with IS, processed by extraction, and analyzed using LC-MS/MS. Positive (M+H)+ ions for individual compounds and IS were monitored in MRM mode.

anesthetized dog = assay: Colorectal pressure manometry in anesthetized dog; type: in vivo
Experimental: Animal preparation: Naïve beagle dogs were fasted for 12-24 hours and received a warm water enema the night prior to, and the morning of, the experiment to clear the rectum and lower colon of feces. The day of the experiment, a 20 gauge IV catheter (Terumo Surflo) was placed in the cephalic vein for anesthetic induction (propofol, 10 mg/kg; IV) and delivery of IV fluids (5-10 ml/kg/hr) and compounds. The sedated dog was intubated with a 5-6 Fr tracheal tube and was maintained on 2-3% isoflurane via a ventilator (15-25 breaths/min; tidal volume […]) for the remainder of the experiment.
Bowel contractility: For colorectal pressure manometry, an ˜3 inch balloon catheter was inserted into the rectum and secured to the tail with tape. This catheter was connected via a three-way stopcock to a pressure transducer (UTAH MEDICAL PRODUCTS; DelTran II) for pressure recording. Data were recorded using PowerLab/8SP acquisition system using LabChart software (version 7.3.7; ADINSTRUMENTS, Australia). Arterial pressure, ECG, temperature and blood oxygen saturation (spO2) were monitored throughout the experiment (MEDTRONIC LIFEPAK12). Dogs were recovered in a quiet room under veterinary supervision.

[7] = calcium mobilization, CHO-hNK2 cells, read-out: hNK2 EC50
[8] = calcium mobilization, CHO-hNK1 cells, read-out: hNK1 EC50
[9] = displacement of 0.1 nM [125I]-NKA, CHO-hNK2 membranes, read-out: hNK2 binding Ki
[10] = displacement of 5.0 nM [3H]-septide, CHO-hNK1 membranes, read-out: hNK1 binding Ki

Ki [4, 9] | Ki [5, 10] | half-life ([6]; iv) | Molecule | solubility [1] | EC50 [2, 7] | EC50 [3, 8] | hNK2 selectivity ratio [4] | hNK2 selectivity ratio [2] | duration of colorectal pressure response (anesthetized dog; IV bolus (B and E 3 μg/kg; G 3, 30 and 66 ug/kg)) | onset of increase in colorectal pressure (anesthetized dog; IV bolus (E 3 μg/kg; G 3, 30 and 66 ug/kg)) | Ki [4] | Ki [5] | EC50 [2] | EC50 [3] | level at 10 min ([6]; 100 ug/kg, cassette IV bolus 100 μg/kg, by 10 min post-dose, read-out: plasma concentration) | half-life ([6]; cassette IV bolus, 100 μg/kg each compound, read-out: plasma t1/2)
 |  |  | CSCC[C@H](NC(=O)[C@H](CC(C)C)NC(=O)CNC(=O)[C@@H](NC(=O)[C@H](Cc1ccccc1)NC(=O)[C@H](CCCCN)NC(=O)[C@@H](N)CC(=O)O)C(C)C)C(N)=O [D, Asp-Lys-Phe-Val-Gly-Leu-Met-NH2] | < 1000 µg/mL | 0.09 nM | 0.41 nM |  |  |  |  |  |  |  |  |  | 
2.11 nM | 257 nM | 3.3 to 4.7 min | CSCC[C@H](NC(=O)[C@H](CC(C)C)NC(=O)CCNC(=O)[C@@H](NC(=O)[C@H](Cc1ccccc1)NC(=O)[C@H](CCCCN)NC(=O)[C@@H](N)CC(=O)O)C(C)C)C(N)=O [Compound E, Asp-Lys-Phe-Val-(β-Ala)-Leu-Met-NH2] (HELM PEPTIDE1{D.K.F.V.[bAla].L.M.[am]}$$$$V2.0; N-terminus assumed) | < 1000 µg/mL | 0.18 nM | 6.31 nM | 122.04 | 36 | approximately 4 minutes | ≤ 1 min |  |  |  |  |  | 
6.85 nM | 1200 nM | 3.3 to 4.7 min | CCCC[C@H](NC(=O)[C@H](CC(C)C)NC(=O)CCNC(=O)[C@@H](NC(=O)[C@H](Cc1ccccc1)NC(=O)[C@H](CCCNC(=N)N)NC(=O)[C@@H](N)CC(=O)O)C(C)C)C(N)=O [K, Asp-Arg-Phe-Val-(β-Ala)-Leu-Nle-NH2] (HELM PEPTIDE1{D.R.F.V.[bAla].L.[Nle].[am]}$$$$V2.0; N-terminus assumed) | < 1000 µg/mL | 1.16 nM | 29.5 nM | 175.59 | 25 |  |  |  |  |  |  |  | 
 |  |  | CCCC[C@H](NC(=O)[C@H](CC(C)C)NC(=O)CNC(=O)[C@@H](NC(=O)[C@H](Cc1ccccc1)NC(=O)[C@H](CCCCN)NC(=O)[C@@H](N)CC(=O)O)C(C)C)C(N)=O [F, Asp-Lys-Phe-Val-Gly-Leu-Nle-NH2] | < 1000 µg/mL | 0.38 nM | 2.36 nM | 81.47 | 6 |  |  | 2.75 nM | 224 nM |  |  |  | 
0.12 nM | 20.9 nM |  | CSCC[C@H](NC(=O)[C@H](CC(C)C)N(C)C(=O)CNC(=O)[C@@H](NC(=O)[C@H](Cc1ccccc1)NC(=O)[C@H](CCCNC(=N)N)NC(=O)[C@@H](N)CC(=O)O)C(C)C)C(N)=O [C, Asp-Arg-Phe-Val-Gly-(NMe-Leu)-Met-NH2] (HELM PEPTIDE1{D.R.F.V.G.[meL].M.[am]}$$$$V2.0; N-terminus assumed) | > 20000 µg/mL | 0.16 nM | 0.3 nM | 167.49 | 2 |  |  |  |  |  |  |  | 
 |  |  | CSCC[C@H](NC(=O)[C@H](CC(C)C)N(C)C(=O)CNC(=O)[C@@H](NC(=O)[C@H](Cc1ccccc1)NC(=O)[C@H](CCCCN)NC(=O)[C@@H](N)CC(=O)O)C(C)C)C(N)=O [A, Asp-Lys-Phe-Val-Gly-(NMe-Leu)-Met-NH2] | > 20000 µg/mL |  |  | 248.89 | 7 |  |  | 0.2 nM | 50.1 nM | 0.14 nM | 0.95 nM | < 1 ng/mL | 0.2 to 1.2 min
0.88 nM | 95.5 nM |  | CSCC[C@H](NC(=O)[C@H](CC(C)C)NC(=O)CCNC(=O)[C@@H](NC(=O)[C@H](Cc1ccccc1)NC(=O)[C@H](CCCNC(=N)N)NC(=O)[C@@H](N)CC(=O)O)C(C)C)C(N)=O [I, Asp-Arg-Phe-Val-(β-Ala)-Leu-Met-NH2] (HELM PEPTIDE1{D.R.F.V.[bAla].L.M.[am]}$$$$V2.0; N-terminus assumed) | < 1000 µg/mL | 0.15 nM | 1.83 nM | 108.27 | 12 |  |  |  |  |  |  |  | 
 |  |  | DRFVGLM-NH2 [H, Asp-Arg-Phe-Val-Gly-Leu-Met-NH2] | < 1000 µg/mL | 0.19 nM | 0.16 nM | 27.10 | 0.8 |  |  | 0.31 nM | 8.32 nM |  |  |  | 
 |  |  | CCCC[C@H](NC(=O)[C@H](CC(C)C)NC(=O)CNC(=O)[C@@H](NC(=O)[C@H](Cc1ccccc1)NC(=O)[C@H](CCCNC(=N)N)NC(=O)[C@@H](N)CC(=O)O)C(C)C)C(N)=O [J, Asp-Arg-Phe-Val-Gly-Leu-Nle-NH2] (HELM PEPTIDE1{D.R.F.V.G.L.[Nle].[am]}$$$$V2.0; N-terminus assumed) | < 1000 µg/mL | 0.2 nM | 1.71 nM | 72.53 | 9 |  |  | 1.74 nM | 126 nM |  |  |  | 
